{"source": "patent US8853353B2", "about": "“Membrane type-1 matrix metalloprotein inhibitors and uses thereof” (Angiochem, Inc., priority 2008, dated 2014)", "key": {"[1]": {"system": "GST-MT1-MMP cytoplasmic tail fusion protein (GST-MT)", "conditions": "recombinant Src kinase, ATP, western blot", "experimental": "The GST-MT1-MMP cytoplasmic tail fusion protein (GST-MT) was incubated with recombinant Src kinase in the presence of ATP and the phosphorylation products were analyzed by western blotting."}, "[2]": {"system": "osteosarcoma cells (MG-63)", "conditions": "bone cancer cells, 3D collagen gel", "experimental": "(§1) Different tumor cell lines were incubated with the peptides and grown atop of a collagen film (2D) or within a collagen gel (3D)."}, "[3]": {"system": "tumor cell lines", "conditions": "grown atop of a collagen film (2D)", "experimental": "as §1"}, "[4]": {"system": "breast adenocarcinoma cells (MDA-MB-231)", "conditions": "breast cancer cells, 3D collagen gel", "experimental": "as §1"}, "[5]": {"system": "glioblastoma cells (U-87)", "conditions": "3D collagen gel", "experimental": "as §1"}, "[6]": {"system": "fibrosarcoma cells (HT-1080)", "conditions": "3D collagen gel", "experimental": "as §1"}, "[7]": {"system": "medulloblastoma cells (DAOY)", "conditions": "3D collagen gel", "experimental": "as §1"}, "[8]": {"system": "prostate adinocarcinoma cells (PC-3)", "conditions": "prostate cancer cells, 3D collagen gel", "experimental": "as §1"}, "[9]": {"system": "Fibrosarcoma cells implanted subcutaneously", "conditions": "10 mg/kg daily subcutaneous", "experimental": "Fibrosarcoma cells were implanted subcutaneously into the flank of athymic nude mice. […] Mice were given daily subcutaneous administrations of 10 mg/kg of peptides or vehicle."}}}
{"substance": "Biotin-Ahx-RQIKIWFQNRRMKWKK-RRHGTPRRLLFCQRSLLDKV [ACM-14]", "values": [{"measurement": "inhibition of Src-mediated tyrosine phosphorylation of GST-MT", "setting": "[1]", "value": "completely inhibited"}, {"measurement": "inhibition of 3D proliferation", "setting": "[2]", "value": "inhibits"}, {"measurement": "effect on tumor cell proliferation in 2D conditions", "setting": "[3]", "value": "does not affect"}, {"measurement": "inhibition of 3D proliferation", "setting": "[4]", "value": "inhibits"}, {"measurement": "reduction of proliferation in 3D matrix", "setting": "[5]", "value": 50, "unit": "%"}, {"measurement": "inhibition of 3D proliferation", "setting": "[6]", "value": "inhibits"}, {"measurement": "reduction of proliferation in 3D matrix", "setting": "[7]", "value": 35, "unit": "%"}, {"measurement": "inhibition of 3D proliferation", "setting": "[8]", "value": "inhibits"}, {"measurement": "tumors completely regressed and totally disappeared", "setting": "[9]", "value": 17, "unit": "%"}, {"measurement": "reduction of tumor growth", "setting": "[9]; 26 days post-implantation", "value": 70, "unit": "%"}]}
{"substance": "Biotin-Ahx-RQIKIWFQNRRMKWKK-TLRQRRCLPHFDSGLRKVRL [scACM-14, reference compound]", "values": [{"measurement": "inhibition of Src-mediated tyrosine phosphorylation of GST-MT", "setting": "[1]", "value": "not observed"}, {"measurement": "reduction of proliferation in 3D matrix", "setting": "[5]", "value": "no effect"}, {"measurement": "reduction of proliferation in 3D matrix", "setting": "[7]", "value": "no effect"}]}
